Reference: patent US6436423B1, “Product and method for improving avian health” (Arkion Life Sciences, priority 1998, dated 2002)

Assays:
coccidia = experiment: Example 2: intestinal lesion scores (intestinal coccidia score); format: in vivo, broiler chicken; details: 14 day data; 10× or 4× AQ dose on litter combined with typically used poultry diets
Experimental: (§1) A total of 6912 one-day-old straight run Ross x Hubbard HyY broiler chicks was used in the experiment. There were 12 treatments with 8 replicates per treatment and 72 birds per replicate. The individual pen was the experimental unit. The experimental treatments used were as follows:
(§2) 4× Solution of AQ−1 Gallon/44,000sqft×4.2 ml per 48sqft (one pen)
This means that the lesion score difference was greater than 1 unit (scoring range of 0-4).

[1] = tested on: Ross x Hubbard HyY broiler chicks; experiment: Example 1: efficacy of AQ applied to the litter used in broiler chicken houses (42 day performance); format: in vivo; details: AQ applied to the litter at the 1.0× dose; full dose and half dose of coccidiostat in the feed
Description: A total of 3456 one-day-old straight run Ross x Hubbard HyY broiler chicks was used in the experiment. There were 6 treatments with 8 replicates per treatment and 72 birds per replicate. The individual pen was the experimental unit. The experimental treatments used follows:
1. Negative Control =No coccidiostat or growth promoting antibiotics and no litter treatment
2. Positive Control=BioCox® (full dose)+BMD®+3-Nitro and no litter treatment
3. BioCox® (full dose)+BMD®+3-Nitro+0.5× litter treatment*
4. BioCox® (full dose)+BMD®+3-Nitro+1.0× AQ litter treatment**
5. BioCox® (half dose)+BMD®+3-Nitro+0.5× AQ litter treatment
6. BioCox® (half dose)+BMD®+3-Nitro+1.0× AQ litter treatment
*0.5× Solution of AQ−⅛ Gallon/44,000sqft
**1.0× Solution of AQ−¼ Gallon/44,000sqfi

[2] = tested on: Ross x Hubbard HyY broiler chicks; experiment: Example 2: efficacy of AQ applied to the litter used in broiler chicken houses, dose titration (42 day performance); format: in vivo
Description: The term “weight adjusted feed efficiency” is based upon a feed efficiency corrected to a standard weight called the “weight adjusted feed efficiency” (WAFE). Feed efficiency can be adjusted to a standard weight of 2.00 kg. For every 31.78 grams difference in weight, the feed efficiency can be adjusted by 0.01. For example:
as §1
1. Negative Control—No coccidiostat or growth promoting antibiotics—No litter treatment
4. No litter treatment—BioCox (half dose)
3. 4× AQ litter treatment—No feed additives
4. 4× AQ litter treatment—BioCox (half dose)
5. 10.0× AQ litter treatment—No feed additives
6. 4.0× AQ litter treatment+BioCox (low dose)+BMD+3-Nitro
7. 4.0× AQ litter treatment BioCox (low dose)+BMD+3-Nitro
8. 10× AQ litter treatment−BioCox (half dose)
9. Positive Control BioCox (full dose)+BMD+3-Nitro
10. 4× AQ litter treatment−BioCox (full dose)+BMD+3-Nitro
11. 10× AQ litter treatment−BioCox (half dose)+BMD+3-Nitro
12. 10× AQ litter treatment−BioCox (full dose)+BMD+3-Nitro.
as §2

[3] = 10× AQ dose on litter combined with typically used poultry diets
[4] = 10× AQ dose on litter, diet contained no coccidiostat or antibiotic feed additive

O=C1c2ccccc2C(=O)c2ccccc21 [AQ, anthraquinone]
intestinal coccidia score compared with the positive and negative control (conclusion) (coccidia): improved significantly (p<0.05) over the positive and negative control
effect on feed efficiency (conclusion) [1]: improvement in feed efficiency
feed efficiency compared with the positive control (conclusion) [2, 3]: significantly improved (p<0.05) over the positive control
weight gain compared with the positive control (conclusion) [2, 3]: significantly improved (p<0.05) over the positive control
feed efficiency compared with the negative control (conclusion) [2, 4]: significant difference between this treatment and the negative control
feed efficiency compared with the positive control (conclusion) [2, 4]: no difference from the positive control
effect of addition of AQ to the litter on weight gain (conclusion) ([2]; dose titration study): tends to improve weight gain numerically
